Assay results reported in patent US9505717B2, “Acetic acid ester compound or salt thereof” (Taiho Pharmaceutical Co., Ltd., priority 2012, dated 2016).

Tested on: female SD rats
Test: Test Example 1: urethral baseline pressure (intraurethral pressure) in rats after oral administration
Assay type: in vivo, rat
Conditions: 3 mg/kg oral, 11-week-old female SD rats, n=8, mean for 30 minutes after 8 hours from administration, Student's t-test vs distilled water group, FIG. 1
Method: The compounds of the present invention and comparative compounds were individually orally administered in an amount of 3 mg/kg to 11-week-old female SD rats (test substance-administration groups, n=8 for each group), and distilled water was orally administered as the control to 11-week-old female SD rats (solvent administration group, n=8). As the comparative compounds, 4-(1-methylpiperidyl) 2,2-diphenyl-2-propoxyacetate (Comparative Example 1), 4-(1-methylpiperidyl) 2,2-diphenyl-2-(propoxy-1,1,2,2,3,3,3-d7)acetate (Comparative Example 2), which is a deuterated compound of Comparative Example 1, and 4-piperidyl 2,2-diphenyl-2-propoxyacetate (Comparative Example 3), synthesized according to Patent Literatures 1 to 3, respectively, were used.
Seven and a half hours after administration, each rat was anesthetized by intraperitoneal administration of 1.2 g/kg of urethane. Thereafter, the ureters and the area between the urethra and the bladder were ligated, and a vesical fistula catheter and a catheter for measuring intraurethral pressure were inserted and indwelled in the bladder and the urethra. The catheter for measuring intraurethral pressure was inserted from the external urethral orifice. The other end of each catheter was connected to a corresponding pressure transducer branched into two directions via a corresponding three-way stopcock, and the remaining connecting portion of each three-way stopcock was connected to a corresponding syringe set in a continuous injection device. Intravesical pressure and intraurethral pressure were recorded via a polygraph connected with the pressure transducers. […] Physiological saline was injected into the urethra using the micro syringe pump connected to the urethra at 3 mL/hr, and the changes in intraurethral pressure associated with the rhythmic contraction were recorded.
The mean values of the urethral baseline pressure for the solvent administration group and the test substance-administration groups were calculated, and the results were indicated as mean±SE. […]

Row | SMILES | urethral baseline pressure (effect versus solvent administration group)
1 | [2H]C([2H])([2H])C([2H])([2H])C([2H])([2H])OC(C(=O)OC1CCN(C)CC1)(c1ccccc1)c1ccccc1 [Comparative Example 2, 4-(1-methylpiperidyl) 2,2-diphenyl-2-(propoxy-1,1,2,2,3,3,3-d7)acetate] | did not have a significant effect on urethral baseline pressure
2 | CCCOC(C(=O)OC1CCN(C)CC1)(c1ccccc1)c1ccccc1 [Comparative Example 1, 4-(1-methylpiperidyl) 2,2-diphenyl-2-propoxyacetate] | did not have a significant effect on urethral baseline pressure
3 | CCCOC(C(=O)OC1CCNCC1)(c1ccccc1)c1ccccc1 [Comparative Example 3, 4-piperidyl 2,2-diphenyl-2-propoxyacetate] | did not have a significant effect on urethral baseline pressure
